From paper PMC8570331, “8-Hydroxyquinoline-Amino Acid Hybrids and Their Half-Sandwich Rh and Ru Complexes: Synthesis, Anticancer Activities, Solution Chemistry and Interaction with Biomolecules” (International Journal of Molecular Sciences, 2021)
Where two headings read alike, the source gives them in different places.

What was measured:
Type in all cases: physicochemical
[1] = Rate of complex formation followed by UV-vis; conditions: pH 0.7, equimolar ligand and [M(arene)(H2O)3]2+
Protocol: The complex formation processes were followed in the absence of chloride ions, similar to our previous studies, to obtain comparative data. Time dependence of UV-vis spectra recorded for the equimolar solution of the ligand and [M(arene)(H2O)3]^2+ at pH 0.7 and 4.1 was followed. The charge-transfer band in the 340–500 nm region is a good indicator for complexation. […] The equilibration time decreased to <2 min for both RhCp* complexes at pH 4.1, while ~1.5 h was needed for the RuCym complexes, as it is shown in Figure S18. Although, in the isolated solid complexes, the neutral ligands are coordinated, in solution under this condition, the formation of complexes with the general formula [M(arene)(HQCl-D-(h)ProH−1)(H2O)]^+ is expected due to the deprotonation of the non-coordinating carboxyl group. In summary, these findings clearly indicate the high stability of the title complexes and the considerable difference in the rate of complex formation with the two types of metal ions.
Agilent Cary 8454 diode array spectrophotometer was utilized to obtain UV-vis spectra in the wavelength range 190–1100 nm. The path length (ℓ) was 1 cm in most cases (the actual ℓ is always indicated in the legends of the figures). The concentrations of the ligands and complexes were between 88 and 240 µM. […]

[2] = Formation constants of RhCp* complexes by ligand displacement with 2-picolylamine; conditions: pH 7.4, displacement by 2-picolylamine, UV-vis, chloride-free
From the text: Besides 2-picolylamine, the rigid aromatic 1,10-phenantroline (phen, Figure 6) or the excess of the 8-hydroxyquinoline ligand itself (Figure S20) also results in the loss of p-cymene. Two main processes were seen upon the addition of two equiv. phen to the complex (Figure 6). The first step is most probably the loss of the arene ring and the formation of a mixed-ligand complex [Ru(II)(HQCl-D-ProH−1)(phen)(H2O)2]^+ (λmax = 500 nm), which is followed by the slower binding of the second phen.
(§1) Agilent Cary 8454 diode array spectrophotometer was utilized to obtain UV-vis spectra in the wavelength range 190–1100 nm. The path length (ℓ) was 1 cm in most cases (the actual ℓ is always indicated in the legends of the figures). The concentrations of the ligands and complexes were between 88 and 240 µM. For HSA and ct-DNA containing samples, complex concentrations were 100 µM, and 0.5 and 2 equiv. biomolecule were added for kinetic studies, respectively. Individual samples contained 0–20 µM HSA and 0–1.75 mM (nucleotide) ct-DNA. Spectra were always background corrected. The computer program HypSpec was used to obtain stability constants.

[3] = Distribution coefficients, shake-flask n-octanol/buffered aqueous solution; conditions: pH 7.4, n-octanol/buffer, in 100 mM KCl, read-out: logD7.4
Protocol: It is worth noting that these amino acid hybrids have excellent water solubility due to their zwitterionic form, unlike most 8-hydroxyquinolines.
Distribution coefficients of the ligands as well as of the complexes were determined at pH = 7.4 using the traditional shake-flask method in n-octanol/buffered aqueous solution (20 mM phosphate) at different chloride ion concentrations (4, 24 and 100 mM) using UV-vis spectrophotometry for the analysis. The measurement and data evaluation were performed as described in our former work.

[4] = Proton dissociation constants of the ligands (pH-potentiometry, UV-vis, 1H NMR titrations); conditions: for pKa: aqueous solution, I = 0.2 M KNO3, T = 25.0 °C
Protocol: pH-potentiometric measurements were carried out at 25.0 ± 0.1 °C in water in the pH range between 2.0 and 11.5 and at a constant ionic strength of 0.2 M KNO3. The titrations were performed in a carbonate-free KOH solution (0.20 M). The exact concentrations of HNO3 and KOH solutions were determined by pH-potentiometric titrations. An Orion 710A pH-meter equipped with a Metrohm combined electrode (type 6.0234.100) and a Metrohm 665 Dosimat burette were used for the pH-potentiometric measurements. […] The average water ionization constant, pKw, was determined as 13.76 ± 0.01, which is in good agreement with the literature data. The initial volume of the samples was 5.0 mL. The ligand concentration was 1.75 or 2.0 mM. Samples were degassed by bubbling purified argon through them for about 10 min prior to the measurements, and the inert gas was also passed over the solutions during the titrations. The computer program Hyperquad2013 [46] was utilized to establish the stoichiometry of the species and to calculate the equilibrium constants, similarly to that performed in our previous works.
as §1
Bruker Avance III HD Ascend 500 Plus instrument (Billerica, MA, USA) was used for NMR studies. ^1H NMR spectroscopic measurements were carried out with a WATERGATE water suppression pulse scheme in the presence of 10% (v/v) D2O in most cases. DSS internal standard was added to samples to obtain reference peaks. Complex concentrations were 0.5 mM or 1.0 mM, and 0.5 equiv. HSA was added. ^1H NMR titrations were carried out in the presence of 0.2 M KNO3. With the FHA model peptide, the measurements were performed at 0.5 or 1 mM metal complex concentrations, and 1:1, 1:2 or 2:1 peptide-to-metal complex ratios were applied. The computer program HypSpec was used to obtain stability constants.

Compound	time to reach complex formation equilibrium [1]	stability constant logK of the RhCp* complex [2]	logD [3]	pKa ([4]; 1H NMR, read-out: pKa (NhPro/ProH+))	pKa ([4]; 1H NMR, read-out: pKa (NqH+))	pKa ([4]; 1H NMR, read-out: pKa (OH))	pKa ([4]; UV-vis, read-out: pKa (NhPro/ProH+))	pKa ([4]; UV-vis, read-out: pKa (NqH+))	pKa ([4]; UV-vis, read-out: pKa (OH))	pKa ([4]; pH-potentiometry, read-out: pKa (NhPro/ProH+))	pKa ([4]; pH-potentiometry, read-out: pKa (NqH+))	pKa ([4]; pH-potentiometry, read-out: pKa (OH))	fraction of the negatively charged species (O−, COO−, NhPro/ProH+) ([4]; at pH 7.4) [%]
Cc1c(C)c(C)[c-](C)c1C.O=C(O)[C@H]1CCC[NH+]1Cc1cc(Cl)c2cccnc2c1[O-].[Cl-].[Cl-].[Rh+3] [RhCp*–HQCl-D-Pro, [RhCp*(HQCl-D-Pro)Cl]Cl]	~ 30 min	13.48 ± 0.03	–	–	–	–	–	–	–	–	–	–	–
O=C(O)[C@H]1CCCCN1Cc1cc(Cl)c2cccnc2c1O [HQCl-D-hPro, (R)-5-chloro-7-((homoproline-1-yl)methyl)8-hydroxyquinoline]	–	–	0.36	> 11	2.52 ± 0.03	7.54 ± 0.02	11.43 ± 0.01	2.43 ± 0.01	7.49 ± 0.04	> 11	2.42 ± 0.04	7.52 ± 0.06	42
Cc1c(C)c(C)[c-](C)c1C.O=C(O)[C@H]1CCCC[NH+]1Cc1cc(Cl)c2cccnc2c1[O-].[Cl-].[Cl-].[Rh+3] [RhCp*–HQCl-D-hPro, [RhCp*(HQCl-D-hPro)Cl]Cl]	~ 3 min	13.35 ± 0.03	–	–	–	–	–	–	–	–	–	–	–
